Source: US20230146455A1, “TREATMENT OF INFLAMMATORY DISEASES WITH PEPTIDES AND PHARMACEUTICAL COMPOSITIONS” (Yuyu Pharma, Inc., priority 2020, published 2023)
Several values for one entry are separate records, joined by “and”; a condition that tells them apart may be missing. Identical values can stand only once. Where a SMILES comes first, the peptide text is derived from it. [ ]: non-standard residue; d: D form. Hyp = O=C(O)[C@@H]1C[C@@H](O)CN1

Tested on: CCL5/RANTES
Experiment: Example 9 Luminex, LPS hPBMCs: CCL5/RANTES
Assay type: cell-based, human
Description: Treatment Human PBMCs were pretreated with YY-101, YDE-011 and YDE-043 or reference compound; Xiidra® at various concentration (ranging from 1 nM to 100 uM) for 2 h before stimulation. An equal volume of 0.5% DMSO was used as a vehicle control. Then, the cells were treated with LPS at 5 ug/ml. The supernatants from treated cells were harvested at 24 h and placed in a 96 well for Luminex cytokine & chemokine profiling using a Luminex 200 multiplex assay (Luminex; R&D system, USA).
The main study arm with triplicate wells per group in a 24-well plate: • 1. Blank • 2. PBMC: 0.5% DMSO • 3. PBMC+LPS (5 ug/ml) • 4. PBMC+YY-101 100 uM • 5. PBMC+YY-101 10 uM • 6. PBMC+YY-101 1 uM • 7. PBMC+YY-101 0.1 uM • 8. PBMC+YY-101 0.01 uM • 9. PBMC+LPS (5 ug/ml)+Xiidra®100 uM • 10. PBMC+LPS (5 ug/ml)+Xiidra® 10 uM • 11. PBMC+LPS (5 ug/ml)+Xiidra® 1 uM • 12. PBMC+LPS (5 ug/ml)+Xiidra®0.1 uM • 13. PBMC+LPS (5 ug/ml)+Xiidra®0.01 uM • 14. PBMC+LPS (5 ug/ml)+Xiidra®0.001 uM • 15. PBMC+LPS (5 ug/ml)+YY-101 100 uM • 16. PBMC+LPS (5 ug/ml)+YY-101 10 uM • 17. PBMC+LPS (5 ug/ml)+YY-101 1 uM • 18. PBMC+LPS (5 ug/ml)+YY-101 0.1 uM • 19. PBMC+LPS (5 ug/ml)+YY-101 0.01 uM • 20. PBMC+LPS (5 ug/ml)+YY-101 0.001 uM • 21. PBMC+LPS (5 ug/ml)+YDE-011 100 uM • 22. PBMC+LPS (5 ug/ml)+YDE-011 10 uM • 23. PBMC+LPS (5 ug/ml)+YDE-011 1 uM • 24. PBMC+LPS (5 ug/ml)+YDE-011 0.1 uM • 25. PBMC+LPS (5 ug/ml)+YDE-011 0.01 uM • 26. PBMC+LPS (5 ug/ml)+YDE-011 0.001 uM • 27. PBMC+LPS (5 ug/ml)+YDE-043 100 uM • 28. PBMC+LPS (5 ug/ml)+YDE-043 10 uM • 29. PBMC+LPS (5 ug/ml)+YDE-043 1 uM • 30. PBMC+LPS (5 ug/ml)+YDE-043 0.1 uM • 31. PBMC+LPS (5 ug/ml)+YDE-043 0.01 uM • 32. PBMC+LPS (5 ug/ml)+YDE-043 0.001 uM
Multiplex assay was used to measure 30 cytokines and chemokines. The 1:2, 1:10 and 1:200 diluted cell supernatant and serial dilution of the standard were dispensed into a 96 well plate at 50 ul/well. Then, the pre-mixed cocktail of antibody-coated magnetic beads was dispensed at 50 ul/well and incubated at room temperature for 2 h in a horizontal orbital microplate shaker at 800±500 rpm. The beads were washed using a magnetic device to prevent loss. The biotin-antibody was dispensed in 50 ul of each well and incubated at room temperature for 1 h in a shaker at 800±500 rpm. After washing, streptavidin-PE was added at 50 ul/well and incubated at room temperature for 30 min in a shaker under the same conditions. Finally, after washing, wash buffer (100 ul/well) was added to the plate and incubated in a shaker for 2 min. The Luminex™ 200 setting were set according to the manufacturer's protocol. The data was calculated with a standard five-parameter logistic nonlinear regression analysis of the data (xPonent software 4.2, USA). The levels of cytokine/chemokine are normalized to the live cell counts (1×10^5 cells/mL) and presented as concentrations per mL (pg/mL or ng/mL).

[1] = PBMC + LPS(5 ug/ml), test article 0.001 uM, Mean
[2] = PBMC + LPS(5 ug/ml), test article 0.001 uM, single replicates (1st, 2nd, 3rd)
[3] = PBMC + LPS(5 ug/ml), test article 0.01 uM, Mean
[4] = PBMC + LPS(5 ug/ml), test article 0.01 uM, single replicates (1st, 2nd, 3rd)
[5] = PBMC + LPS(5 ug/ml), test article 0.1 uM, Mean
[6] = PBMC + LPS(5 ug/ml), test article 0.1 uM, single replicates (1st, 2nd, 3rd)
[7] = PBMC + LPS(5 ug/ml), test article 1 uM, Mean
[8] = PBMC + LPS(5 ug/ml), test article 1 uM, single replicates (1st, 2nd, 3rd)
[9] = PBMC + LPS(5 ug/ml), test article 10 uM, Mean
[10] = PBMC + LPS(5 ug/ml), test article 10 uM, single replicates (1st, 2nd, 3rd)
[11] = PBMC + LPS(5 ug/ml), test article 100 uM, Mean
[12] = PBMC + LPS(5 ug/ml), test article 100 uM, single replicates (1st, 2nd, 3rd)
[13] = PBMC without LPS, test article 0.01 uM, Mean
[14] = PBMC without LPS, test article 0.01 uM, single replicates (1st, 2nd)
[15] = PBMC without LPS, test article 0.1 uM, Mean
[16] = PBMC without LPS, test article 0.1 uM, single replicates (1st, 2nd)
[17] = PBMC without LPS, test article 1 uM, Mean
[18] = PBMC without LPS, test article 1 uM, single replicates (1st, 2nd)
[19] = PBMC without LPS, test article 10 uM, Mean
[20] = PBMC without LPS, test article 10 uM, single replicates (1st, 2nd)
[21] = PBMC without LPS, test article 100 uM, Mean
[22] = PBMC without LPS, test article 100 uM, single replicates (1st, 2nd)

CC(C)C[C@H](NC(=O)CNC(=O)[C@H](CC(=O)O)NC(=O)[C@H](CCC(N)=O)NC(=O)CNC(=O)[C@@H]1C[C@@H](O)CN1)C(=O)N[C@@H](C)C(=O)NCC(=O)N1CCC[C@H]1C(=O)N[C@@H](CCCCN)C(=O)O [YY-101] (H-[Hyp]GQDGLAGPK-OH; N-terminus and C-terminus assumed)
Concentration (CCL5/RANTES) [1]: 402.3 pg/mL
MFI (Bead name: CCL5/RANTES) [1]: 1103.2
conc/live cell (CCL5/RANTES) [1]: 62.7 pg/10^5
Concentration (CCL5/RANTES) [2]: 407.4 pg/mL and 412.9 pg/mL and 386.6 pg/mL
MFI (Bead name: CCL5/RANTES) [2]: 1120.5 and 1139.5 and 1049.5
conc/live cell (CCL5/RANTES) [2]: 71.5 pg/10^5 and 58.2 pg/10^5 and 58.6 pg/10^5
Concentration (CCL5/RANTES) [3]: 454.1 pg/mL
MFI (Bead name: CCL5/RANTES) [3]: 1281.8
conc/live cell (CCL5/RANTES) [3]: 73.6 pg/10^5
Concentration (CCL5/RANTES) [4]: 476.2 pg/mL and 443.9 pg/mL and 442.2 pg/mL
MFI (Bead name: CCL5/RANTES) [4]: 1358.5 and 1246.5 and 1240.5
conc/live cell (CCL5/RANTES) [4]: 74.4 pg/10^5 and 74.0 pg/10^5 and 72.5 pg/10^5
Concentration (CCL5/RANTES) [5]: 428.0 pg/mL
MFI (Bead name: CCL5/RANTES) [5]: 1191.5
conc/live cell (CCL5/RANTES) [5]: 73.5 pg/10^5
Concentration (CCL5/RANTES) [6]: 432.4 pg/mL and 427.1 pg/mL and 424.5 pg/mL
MFI (Bead name: CCL5/RANTES) [6]: 1206.5 and 1188.5 and 1179.5
conc/live cell (CCL5/RANTES) [6]: 69.7 pg/10^5 and 82.1 pg/10^5 and 68.5 pg/10^5
Concentration (CCL5/RANTES) [7]: 430.6 pg/mL
MFI (Bead name: CCL5/RANTES) [7]: 1200.7
conc/live cell (CCL5/RANTES) [7]: 66.2 pg/10^5
Concentration (CCL5/RANTES) [8]: 456.2 pg/mL and 419.3 pg/mL and 416.4 pg/mL
MFI (Bead name: CCL5/RANTES) [8]: 1289.0 and 1161.5 and 1151.5
conc/live cell (CCL5/RANTES) [8]: 72.4 pg/10^5 and 59.1 pg/10^5 and 67.2 pg/10^5
Concentration (CCL5/RANTES) [9]: 430.1 pg/mL
MFI (Bead name: CCL5/RANTES) [9]: 1198.8
conc/live cell (CCL5/RANTES) [9]: 65.2 pg/10^5
Concentration (CCL5/RANTES) [10]: 422.8 pg/mL and 449.1 pg/mL and 418.4 pg/mL
MFI (Bead name: CCL5/RANTES) [10]: 1173.5 and 1264.5 and 1158.5
conc/live cell (CCL5/RANTES) [10]: 70.5 pg/10^5 and 70.2 pg/10^5 and 55.1 pg/10^5
Concentration (CCL5/RANTES) [11]: 336.7 pg/mL
MFI (Bead name: CCL5/RANTES) [11]: 881.7
conc/live cell (CCL5/RANTES) [11]: 58.5 pg/10^5
Concentration (CCL5/RANTES) [12]: 334.7 pg/mL and 330.4 pg/mL and 345.1 pg/mL
MFI (Bead name: CCL5/RANTES) [12]: 875.0 and 860.5 and 909.5
conc/live cell (CCL5/RANTES) [12]: 53.1 pg/10^5 and 53.3 pg/10^5 and 69.0 pg/10^5
Concentration (CCL5/RANTES) [13]: 36.8 pg/mL
MFI (Bead name: CCL5/RANTES) [13]: 52.0
conc/live cell (CCL5/RANTES) [13]: 7.4 pg/10^5
Concentration (CCL5/RANTES) [14]: 27.5 pg/mL and 46.1 pg/mL
MFI (Bead name: CCL5/RANTES) [14]: 37.5 and 66.5
conc/live cell (CCL5/RANTES) [14]: 5.3 pg/10^5 and 9.6 pg/10^5
Concentration (CCL5/RANTES) [15]: 36.2 pg/mL
MFI (Bead name: CCL5/RANTES) [15]: 50.5
conc/live cell (CCL5/RANTES) [15]: 7.1 pg/10^5
Concentration (CCL5/RANTES) [16]: 31.7 pg/mL and 40.7 pg/mL
MFI (Bead name: CCL5/RANTES) [16]: 43.5 and 57.5
conc/live cell (CCL5/RANTES) [16]: 7.2 pg/10^5 and 7.0 pg/10^5
Concentration (CCL5/RANTES) [17]: 35.3 pg/mL
MFI (Bead name: CCL5/RANTES) [17]: 49.0
conc/live cell (CCL5/RANTES) [17]: 6.4 pg/10^5
Concentration (CCL5/RANTES) [18]: 33.0 pg/mL and 37.6 pg/mL
MFI (Bead name: CCL5/RANTES) [18]: 45.5 and 52.5
conc/live cell (CCL5/RANTES) [18]: 6.0 pg/10^5 and 6.8 pg/10^5
Concentration (CCL5/RANTES) [19]: 79.0 pg/mL
MFI (Bead name: CCL5/RANTES) [19]: 136.0
conc/live cell (CCL5/RANTES) [19]: 12.5 pg/10^5
Concentration (CCL5/RANTES) [20]: 109.6 pg/mL and 48.3 pg/mL
MFI (Bead name: CCL5/RANTES) [20]: 201.5 and 70.5
conc/live cell (CCL5/RANTES) [20]: 17.1 pg/10^5 and 7.9 pg/10^5
Concentration (CCL5/RANTES) [21]: 67.1 pg/mL
MFI (Bead name: CCL5/RANTES) [21]: 107.0
conc/live cell (CCL5/RANTES) [21]: 10.1 pg/10^5
Concentration (CCL5/RANTES) [22]: 79.2 pg/mL and 55.0 pg/mL
MFI (Bead name: CCL5/RANTES) [22]: 131.5 and 82.5
conc/live cell (CCL5/RANTES) [22]: 12.4 pg/10^5 and 7.9 pg/10^5
